The values that follow come from patent US20040171613A1, “Therapeutic agent for non-immediate type allergic diseases” (JAPAN TOBACCO INC., priority 2001, published 2004).

The target of data set [1] is T1, CB2 (Homo sapiens, UniProt P34972). The data set can be described thus: cAMP production in forskolin-stimulated hCB2-expressing CHO cells. The class given is cell-based. More on the design: expressed in transfected cells; host or cells: CHO cells. The following applies: for remaining activity at 0.1 µM: CHO, Forskolin (5 μM) + compound 0.1 μM, read-out: Amount of cAMP production compared to control (ratio (%)).
Target sequence in this assay (P34972 whole entry): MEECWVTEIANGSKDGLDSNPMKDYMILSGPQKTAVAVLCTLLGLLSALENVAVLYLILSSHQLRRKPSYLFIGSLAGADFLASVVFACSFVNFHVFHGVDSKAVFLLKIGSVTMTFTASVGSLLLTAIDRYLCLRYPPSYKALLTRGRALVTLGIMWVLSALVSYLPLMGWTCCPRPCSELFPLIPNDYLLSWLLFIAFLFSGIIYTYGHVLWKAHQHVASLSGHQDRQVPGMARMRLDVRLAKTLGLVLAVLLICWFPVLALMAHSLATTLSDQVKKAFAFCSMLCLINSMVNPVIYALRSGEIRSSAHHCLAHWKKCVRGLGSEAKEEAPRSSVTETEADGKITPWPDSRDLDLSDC

In the next data set the test system is antigen-induced asthma. The data set can be described thus: antigen-induced immediate type asthma, late-type asthma and airway hypersensitivity in guinea pigs. It counts as in vivo, guinea pig. The following applies: oral, compound A 10, 30, 100 mg/kg, positive controls 30 mg/kg. Here is the method: The test compound was further diluted to 20, 6 and 2 mg/mL on needed basis. As positive controls, 6 mg/mL pranlukast hydrate (extracted from Onon™ (Ono Pharmaceutical Co., Ltd.)) and 6 mg/mL prednisolone (Sigma) were similarly prepared.
Sensitization: Using an ultrasonic nebulizer (NE-U12; OMRON), a 6-weeks old male Hartley guinea pig (Kudo, Co., Ltd.) was continuously inhaled with 1% OVA (ovalbumin; Sigma)-containing physiological saline for 10 minutes per day for 8 consecutive days.
Antigen challenge: One week after the last sensitization, 2% OVA was similarly inhaled for 5 minutes. 24 hours before and one hour after the OVA challenge, metyrapone-containing physiological saline (Aldrich, 10 mg/mL) was administered intravenously and 30 minutes before the OVA induction, pyrilamine-containing physiological saline (Sigma, 10 mg/kg) was administered intraperitoneally.
During the 8 days of sensitization, the test compound was given one hour before the sensitization. On the day of the antigen challenge, the test compound was given one hour before the challenge. As solvent controls, the vehicle was similarly administered in accordance with OVA induction and physiological saline induction.
As positive controls, pranlukast hydrate was administered one hour before the challenge, while prednisolone was administered 16 hours and 2 hours before the challenge. The animals were fasted 16 to 18 hours before the oral administration.
Using total respiratory function analysis system (Pulmos-I, M.I.P.S. Company), the pre value was measured. Subsequently, specific airway resistance (hereinafter referred to as sRaw) per 100 breathes was measured one minute and 2, 4, 5, 6, 7 and 8 hours after the OVA challenge, and further once between 22 to 26 hours after the challenge, respectively. The average was used as sRaw at each measured time point. The increment ratio of sRaw was calculated by the following formula.
Increment ratio of sRaw (%)=[(sRaw at each measured time point −sRaw before the challenge)/(sRaw before the challenge)]×100
Twenty-two to 26 hours after the antigen challenge, each of 0.0625, 0.125, 0.25, 0.5, 1 and 2 mg/mL solutions of physiological saline and acetylcholine (hereinafter referred to as ACh) were sequentially inhaled for one minute, until the sRaw was 2-fold or more to the baseline sRaw (sRaw after inhalation of physiological saline). Based on the ACh concentration and the concentration-resistance curve of sRaw, the ACh concentration required for the sRaw to achieve 100% increase from the baseline sRaw, i.e., PC100ACh was determined.

The test system of data set [2] is DNFB-induced allergic dermatitis. The data set can be described thus: murine DNFB-induced allergic dermatitis model. The class given is in vivo, mouse. The following applies: 24 hours after the fifth antigen application; oral dosing. As for the experimental part:
The model is produced by repeating antigen sensitization and induction in mouse to induce contact dermatitis that involves increase of IgE antibody titer, i.e., inflammation similar to atopic dermatitis (J. Allergy Clin. Immunol., 100 (6Pt2), 39-44, December 1997).
Furthermore, by dilution, 0.1 mg/mL and 0.01 mg/mL suspensions were prepared. In addition, as positive controls, 0.5 mg/mL, 0.2 mg/mL and 0.1 mg/mL solutions of prednisolone (Sigma) were similarly prepared.
During the period from the next day of the third antigen application to the next day of the fifth antigen application, 10 mL/kg of the above-described test compound was administered once a day 15 times in total.
The difference of thickness was used as an index of swelling. FIGS. 1 and 2 show the results of the measurement at the fourth and fifth antigen applications, together with the results of the positive controls.
24 hours after the fifth antigen application, the spleen was harvested from the mouse exsanguinated under anesthesia with ether. The wet weight of the spleen was measured.

For data set [3], the system named is IgE-dependent allergic dermatitis.
Protocol: (§1) Using a triphase dermatitis model that can be induced by antigen in mouse passively sensitizationed with IgE, the actions of CB2 inverse agonist and CB2 agonist were examined.
(§2) *Animal: 8 to 10 weeks-old Female BALB/c mouse (Japan SLC Inc.) was used.
(§3) Preparation of solvent: MC was dissolved in distilled water to prepare an aqueous 0.5% MC solution.
(§4) Anti-DNP IgE (antibody against DNP; Yamasa Corp.) was prepared to 15 μg/mL with physiological saline. 0.2 mL of the resulting solution was given through the caudal vein to the mouse.
(§5) Antigen preparation: 0.15% (w/v) of DNFB (2,4-dinitrofluorobenzene) was prepared in a mixed solution of acetone and olive oil (3:1, v/v) on needed basis.
(§6) Antigen application: 25 μl of the antigen solution was applied on each side of both of the ears 24 hours after the administration of the anti-DNP IgE.
(§7) From the next day of the antigen application to day 8 after the antigen application, 10 mL/kg test compound was orally administered once a day 9 times in total. On the day of antigen application, the test compound was administered one hour before the antigen application and the test compound was administered one hour before the measurement of the thickness of the ear on day 8 after the antigen application.
(§8) Before and 8 days after the antigen application, the thickness of the ear was measured with a dial thickness gauge (Mitutoyo Corp.). The difference between the value measured before the antigen application and at each time point was used as an index of swelling.
(§9) After the measurement of ear swelling, spleen and thymus were harvested to weigh their wet weights.
The subject of the next data set is mouse ear. Put plainly: ear swelling induced by application of CB2 agonist or arachidonic acid. The class given is in vivo. As for the experimental part: Therefore, 2-arachidonoylglycerol ether (2-AG-E), the stable form of an endogenous ligand candidate 2-arachidonoylglycerol, and a specific CB2 agonist HU-308 were examined whether they directly induce ear swelling and compared to the ear swelling induced by arachidonic acid (AA).
Synthetically produced 2-AG-E and HU-308 were prepared with acetone to 1 or 10% (w/v) and 10% (w/v), respectively, and AA (Sigma) was prepared with acetone to 1.25% (w/v), on needed basis. 10 μL each of these substances was applied on each side of the left ear.

Data set [4] concerns the target T1, CB2. Details: host or cells: CHO cells expressing CB2. To be noted: CB2 expressing CHO cells; non-patent reference 3; cited from earlier work.
Target sequence in this assay (P34972 whole entry, species assumed): as the sequence (P34972 whole entry) above
Data set [5] deals with IgE-dependent allergic dermatitis. The following applies: mouse, in vivo, po.
Protocol: as §1, §2, §3, §4, §5, §6, §7, §8, §9
The subject of data set [6] is spontaneous scratching reaction. The data set can be described thus: spontaneous scratching reaction of NC mouse. The class given is in vivo. To be noted: NC/Jic mice; oral once a day for 3 weeks; vs solvent control. An excerpt: Currently, NC mouse is used as an animal model of atopic dermatitis. No dermatitis or scratching action is observed when the mouse is kept in an environment under the control of atmospheric microorganisms (in SPF environment). However, when the mouse is kept in a conventional environment, scratching action together with the onset of dermatitis can be observed from about week 8 and the symptom progresses into chronic symptom (J. Dermatol. Sci., 25, 20-28, 2001).
Preparation of solvent: MC was dissolved in tap water to prepare an aqueous 0.5% (w/v) MC solution.
As positive controls, betamethasone valerate (Sigma) and tacrolimus hydrate (extracted from Prograf (Fujisawa Pharmaceutical Co., Ltd.)) were similarly prepared to 1 mg/mL. Betamethasone valerate is one of the adrenocorticosteroids that is considered to be effective for the treatment of atopic dermatitis. Tacrolimus hydrate is a therapeutic agent of atopic dermatitis which is known as an immunosuppressor as described above.
The mice (A) were taken away from the cage and the NC/Jic mice were used at the age of 16 weeks.
Breeding conditions: The mice were fed with solid feed CA-1 (CLEA JAPAN INC.) ad libitum and tap water as drinking water ad libitum, and kept at a temperature of 22±2° C. and a humidity of 55±10% under lighting from 8:00 a.m. to 20:00 p.m.
From 10 days before the start of the experiment, the number of scratching behavior with hind legs of the mice was visually counted (for 20 minutes; once daily) over 2 days or 3 days. Among the plural mice counted, mice with 50 or more average scratching movements per day were selected for use.
The behavior of the mice was filmed under unattended environment with a video camera to count the scratching motion with hind legs for one hour. […] This series of scratching motions was counted as one scratching movement, and all such scratching movements were counted irrespective of scratched sites. The measurement was done on the starting day of administration, and one day, 3, 6, 10, 13, 17 and 20 days after the start of administration. […]

Setting [7] is: 8 days after antigen application, oral dosing.

Like-named read-outs stand apart in the source and are kept apart here.

For the compound `CCCCCOc1c(OC)ccc2cc(C(=O)NCCN3CCOCC3)c(=O)[nH]c12` [B], at CB2 [1], the remaining activity at 0.1 µM is 430%.

Consider `C[C@]12C=CC(=O)C=C1CC[C@@H]1[C@@H]2[C@@H](O)C[C@@]2(C)[C@H]1CC[C@]2(O)C(=O)CO` [prednisolone], for which the “airway hypersensitivity (PC100ACh)” value with antigen-induced asthma (22 to 26 hours after antigen challenge) is recorded as “suppressed”. Further, in the data set on antigen-induced asthma, the “immediate type asthma response (sRaw immediately after antigen challenge)” value was “suppressed” and the “late asthmatic response (sRaw over 4 to 8 hours after antigen challenge)” value was “suppressed”. In addition, in data set [2], the spleen wet weight result is on record as “decrease of spleen weight”. In data set [3] (setting [7]), the “wet weight of the spleen” value is reported as “significant suppression” and the “wet weight of the thymus” value is “significant suppression”.

Regarding `CCCCC/C=C\C/C=C\C/C=C\C/C=C\CCCC(=O)O` [AA, arachidonic acid], the “time after which swelling disappeared” value in the data set on mouse ear (topical AA 1.25% (w/v)) is on record as 2 days. Besides, the “time of peak ear swelling after the application” value with mouse ear (topical application on ear) is on record as “one”. For the same compound, the “ear swelling induced by application on the ear” value in the data set with mouse ear (topical in acetone, 2-AG-E 1 or 10%, HU-308 10%, AA 1.25% (w/v)) is on record as “swelling that reached a peak one hour after the application”.

Regarding `CCCCCOc1c(OC)ccc2cc(C(=O)NCCc3ccncc3)c(=O)n(C)c12` [F], the remaining activity at 0.1 µM on CB2 [1] was 218%.

With `CCCCC/C=C\C/C=C\C/C=C\C/C=C\CCCC(=O)OC(CO)CO` [Compound 2-AG, 2-arachidonoylglycerol], the “forskolin-stimulated cAMP production” value on CB2 [1] (hCB2-expressing CHO cells, statement in definitions) is “suppress the forskolin-stimulated cAMP production”.

As for `Cc1ccc(Cn2nc(C(=O)N[C@H]3C4(C)CCC(C4)C3(C)C)cc2-c2ccc(Cl)c(C)c2)cc1` (stereo partly shown) [SR144528], the “forskolin-stimulated cAMP production” value on CB2 [4] is on record as “elevate the production of cyclic adenosine-phosphate (cAMP)”. Also, in data set [5], the “wet weight of the spleen” value is given as “no apparent changes” and the “wet weight of the thymus” value was “no apparent changes”. The “ear swelling, very late phase” value in data set [3] (mouse, in vivo) is given as “significant effect”.

For `CCCCC(=O)O[C@]1(C(=O)CO)[C@@H](C)C[C@H]2[C@@H]3CCC4=CC(=O)C=C[C@]4(C)[C@@]3(F)[C@@H](O)C[C@@]21C` [betamethasone valerate], in data set [6], the “number of scratching movements” value is “suppressed the number of scratching movements”.

`C=CC[C@@H]1/C=C(\C)C[C@H](C)C[C@H](OC)[C@H]2O[C@@](O)(C(=O)C(=O)N3CCCC[C@H]3C(=O)O[C@H](/C(C)=C/[C@@H]3CC[C@@H](O)[C@H](OC)C3)[C@H](C)[C@@H](O)CC1=O)[C@H](C)C[C@@H]2OC` [tacrolimus hydrate]: the “number of scratching movements” value in data set [6] was “suppressed the number of scratching movements”.

With `CCCCCOc1c(OC)ccc2c1CC(=O)N(CCCN1CCOCC1)C2=O` [I], the remaining activity at 0.1 µM on CB2 [1] was 125%.

Take `CCCCOc1c(OC)ccc2cc(C(=O)NCCc3ccc(F)cc3)c(=O)[nH]c12` [C]: on CB2 [1], the remaining activity at 0.1 µM turned out to be 212%.

As for `CCCCCCC(C)(C)c1cc(OC)c([C@@H]2C=C(CO)[C@@H]3C[C@H]2C3(C)C)c(OC)c1` [HU-308], in data set [3] (setting [7]), the “wet weight of the spleen” value is “Significant decrease”. For the same compound, the “ear swelling, very late phase” value in data set [3] (8 days after application, oral once a day, compound A 0.1, 1, 10 mg/kg, SR144528 0.1 mg/kg or higher, HU-308 10 and 50 mg/kg) is “no pharmacological effect was observed”.
